Results from patent publication US20130266636A1, “METHODS FOR BLOCKING CELL PROLIFERATION AND TREATING DISEASES AND CONDITIONS RESPONSIVE TO CELL GROWTH INHIBITION” (THE REGENTS OF THE UNIVERSITY OF CALIFORNIA, priority 2010, published 2013).
Entries after “also recorded” stand apart in the source; their conditions may differ.

Tests used:
[1] = test system: human breast (MDA-MB-231) carcinoma cell line; assay: Cell viability assay in MDA-MB-231 cells; format: cell-based
[2] = test system: human breast (T47D) carcinoma cell line; assay: Cell viability assay in T47D cells; format: cell-based
[3] = molecular target: c-Kit (Homo sapiens, UniProt P10721); conditions: cited from earlier work
c-Kit, sequence (P10721 26-976): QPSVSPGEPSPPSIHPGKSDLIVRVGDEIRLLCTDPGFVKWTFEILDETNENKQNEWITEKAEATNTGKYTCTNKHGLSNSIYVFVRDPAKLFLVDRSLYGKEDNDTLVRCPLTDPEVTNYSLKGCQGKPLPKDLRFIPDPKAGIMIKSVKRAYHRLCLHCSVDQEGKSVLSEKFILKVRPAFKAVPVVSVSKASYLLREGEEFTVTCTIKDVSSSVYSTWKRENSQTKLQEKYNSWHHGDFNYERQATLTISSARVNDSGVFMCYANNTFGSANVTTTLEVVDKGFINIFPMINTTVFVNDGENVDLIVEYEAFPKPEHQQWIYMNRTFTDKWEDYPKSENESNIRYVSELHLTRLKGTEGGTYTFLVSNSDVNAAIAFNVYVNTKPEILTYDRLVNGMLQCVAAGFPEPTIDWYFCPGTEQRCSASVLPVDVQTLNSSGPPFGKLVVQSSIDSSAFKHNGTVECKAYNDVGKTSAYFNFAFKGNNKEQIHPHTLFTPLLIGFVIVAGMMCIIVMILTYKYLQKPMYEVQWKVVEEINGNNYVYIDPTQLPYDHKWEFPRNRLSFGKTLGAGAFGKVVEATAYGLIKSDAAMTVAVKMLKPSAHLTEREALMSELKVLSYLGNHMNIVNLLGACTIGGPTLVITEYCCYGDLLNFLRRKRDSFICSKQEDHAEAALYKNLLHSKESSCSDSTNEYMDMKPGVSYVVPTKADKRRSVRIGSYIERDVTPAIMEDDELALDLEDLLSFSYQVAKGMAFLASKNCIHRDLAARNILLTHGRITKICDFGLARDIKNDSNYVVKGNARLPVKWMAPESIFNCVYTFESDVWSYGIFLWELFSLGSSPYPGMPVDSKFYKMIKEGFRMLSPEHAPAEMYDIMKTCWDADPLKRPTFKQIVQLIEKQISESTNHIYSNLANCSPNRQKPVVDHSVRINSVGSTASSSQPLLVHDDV

[4] = bFGF- or VEGF-stimulated endothelial cells; cited from earlier work
[5] = molecular target: CRAF (Homo sapiens, UniProt P04049); assay: Phospho-S338 CRAF immunoblot in XPA-1 cells; format: cell-based; parameters: total CRAF and total MEK of lysates from XPA-1 cells treated with PD0325901, Sorafenib, L-779450, PLX4720, KG5 or KG1; endogenous in cells; host or cells: XPA-1
CRAF, sequence (P04049 whole entry): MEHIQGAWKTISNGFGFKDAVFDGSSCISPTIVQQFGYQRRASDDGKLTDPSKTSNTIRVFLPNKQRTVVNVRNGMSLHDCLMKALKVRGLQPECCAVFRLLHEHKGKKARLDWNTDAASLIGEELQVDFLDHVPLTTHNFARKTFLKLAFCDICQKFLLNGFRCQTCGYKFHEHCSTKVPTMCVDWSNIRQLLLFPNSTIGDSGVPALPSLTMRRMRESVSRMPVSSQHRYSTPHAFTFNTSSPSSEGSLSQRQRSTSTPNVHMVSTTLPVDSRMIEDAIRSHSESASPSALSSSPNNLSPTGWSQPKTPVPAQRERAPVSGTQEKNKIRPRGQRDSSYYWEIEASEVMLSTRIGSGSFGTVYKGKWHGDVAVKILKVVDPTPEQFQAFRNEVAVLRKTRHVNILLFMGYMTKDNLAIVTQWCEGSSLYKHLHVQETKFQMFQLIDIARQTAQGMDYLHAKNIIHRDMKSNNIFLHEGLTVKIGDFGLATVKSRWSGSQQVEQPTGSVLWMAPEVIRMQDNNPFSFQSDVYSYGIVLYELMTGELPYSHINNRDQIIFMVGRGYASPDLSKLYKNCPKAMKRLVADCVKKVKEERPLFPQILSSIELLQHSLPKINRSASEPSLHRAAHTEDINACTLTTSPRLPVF
Protocol: FIGS. 6 and 7 illustrate immunoblot analysis of CRAF immunoprecipitated from XPA-1 cells treated with KG5 and KG38.
FIG. 13 illustrates immunoblot analysis of phospho-5338 CRAF, phospho-MEK, total CRAF and total MEK of lysates from XPA-1 cells treated with PD0325901, Sorafenib, L-779450, PLX4720, KG5 or KG1.
Immunoprecipitation and Immunoblot Analysis Cells were lysed in either NP40 lysis buffer (150 mM NaCl, 50 mM Tris Base pH 7.4, 1% NP40) or RIPA buffer (50 mM Tris pH 7.4, 100 mM NaCl, 0.1% SDS) supplemented with complete protease inhibitor mixture (Roche), 50 mM NaF and 1 mM Na3VO4 and centrifuged at 13,000×g for 10 min at 4° C. Protein concentration was determined by BCA assay. […] of protein were immunoprecipitated with […] of anti-Flag (Sigma), anti-CRAF (BD Pharmingen), anti-Plk1 (Abcam), anti-γ-Tubulin (sigma) or anti-cenpF (Santa Cruz) antibodies overnight at 4° C. followed by capture with 25 μl of protein A/G (Pierce). Beads were washed five times, eluted in boiling Laemmli buffer, resolved on 10% SDS-PAGE and immunoblotting was performed with anti-Plk1 antibody (Abcam), anti-CRAF antibody (BD Pharmingen), anti-Aurora A (Abcam), anti-phospho-S338 CRAF (Cell Signaling), anti-phospho-T210 Plk1 or anti-phospho-T288 Aurora A (Cell signaling) diluted 1:1000. For immunoblot analysis, […] of protein was boiled in […]

[6] = test system: MDA-MB-231 human breast carcinoma cells; assay: Cells in pro-metaphase in orthotopic breast tumor xenografts; format: in vivo, mice; conditions: systemic KG5 50 mg/Kg, after three days
Excerpt: FIG. 34. CRAF is required for mitotic progression: (a) Cell cycle analysis of WT and CRAF−/− MEFs. Left graph, Cells in G2/M were quantified by flow cytometry. Right graph, Cells at pro-metaphase were quantified using confocal microscopy. Error bars represent s.d. (n=4); * two tailed p value=0.0079 (left graph) and p=0.0055 (right graph) using a Mann Whitney U test. (b) WT and CRAF−/− MEFs were synchronized at pro-metaphase with a thymidine-nocodazole block as described in these Methods, and subsequently released from the blockade and allowed to progress through mitosis. Quantification of cells in G2/M was performed by flow cytometry. Error bars represent s.d. (n=3). (c) Confocal microscopy images of WT and CRAF−/− cells progressing through mitosis at 0, 60 and 360 minutes after release from pro-metaphase blockade. Cells were stained for α-tubulin (in red) and DNA (TOPRO-3™ in blue). Scale bar, 10 μm. […] Cell cycle analysis and quantification of cells in G2/M was performed by flow cytometry. […] (e) Immunohistochemical staining of phospho-5338 CRAF and phospho-histone H3 (mitotic marker) in orthotopic breast and tumor xenografts untreated or treated systemically with KG5 (50 mg/Kg for 3 days Scale bar, 50 μm. […]. Circles indicate cells in pro-metaphase. Right, Quantification of cells in pro-metaphase. Error bars represent s.d. (n=12); * two tailed p value=0.006 using Student T test. […]

[7] = test system: PKC; conditions: cited from earlier work

Which results are given for `CSc1nc(N)cc(Oc2ccc(-c3nnc(Nc4cccc(C(F)(F)F)c4)[nH]3)cc2)n1` [KG5]?
cell viability ([1]; MDA-MB-231): decrease cell viability; EC50 ([1]; MDA-MB-231 breast cancer cell viability assays): approach picomolar (pM) EC50s; cell viability ([2]; T47D): decrease cell viability; EC50 ([2]; T47D breast cancer cells): approach picomolar (pM) EC50s; inhibition of c-Kit [3]: inhibits; p-Aid [4]: did not suppress; serine 338 phosphorylation on CRAF [5]: prevent; also recorded: inhibits phosphorylation of CRAF on serine 338; cells at pro-metaphase in orthotopic breast tumor tissues [6]: accumulation of cells at pro-metaphase; PKC [7]: no impact
